Laboratory results as given in patent US8586597B2, “6-fluoro-3-phenyl-2-[1-(9H-purin-6-ylamino)ethyl]-3H-quinazolin-4-one as an inhibitor of human phosphatidylinositol 3-kinase delta” (ICOS Corporation, priority 2004, dated 2013).

Tests used:
[1] = target: PI3Kδ (Homo sapiens (Human), UniProt O00329); assay: Biochemical assay of PI3K potency using 20 μM ATP (PI3Kδ); settings: read-out: Delta IC50
From the text: (§1) Recombinant PI3K heterodimeric complexes consisting of a p110 catalytic subunit and a p85 regulatory subunit were overexpressed using the BAC-TO-BAC® HT baculovirus expression system (GIBCO/BRL), and then purified for use in biochemical assays. The four Class I PI 3-kinases were cloned into baculovirus vectors as follows:
p110δ: A FLAG®-tagged version of human p110δ (SEQ ID NOS: 1 and 2) (see Chantry et al., J. Biol. Chem., 272:19236-41 (1997)) was subcloned using standard recombinant DNA techniques into the BamH1-Xba1 site of the insect cell expression vector pFastbac HTb (Life Technologies, Gaithersburg, Md.), such that the clone was in frame with the His tag of the vector. The FLAG® system is described in U.S. Pat. Nos. 4,703,004; 4,782,137; 4,851,341; and 5,011,912, and reagents are available from Eastman Kodak Co.
(§2) Biochemical Assay using 20 μM ATP
Using the method described in Example 2, compounds of the invention were tested for inhibitory activity and potency against PI3Kδ, and for selectivity for PI3Kδ versus other Class I PI3K isozymes.
(§3) The initial selectivity assays were performed identically to the selectivity assay protocol in Example 2, except using 100 μL Ecoscint for radiolabel detection.
(§4) Subsequent selectivity assays were done similarly using the same 3× substrate stocks except they contained 0.05 mCi/mL γ[^32P]ATP and 3 mM PIP2. Subsequent selectivity assays also used the same 3× enzyme stocks, except they now contained 3 nM of any given PI3K isoform.
(§5) For all selectivity assays, the test compounds were weighed out and dissolved into 10-50 mM stocks in 100% DMSO (depending on their respective solubilities) and stored at −20° C. Compounds were thawed (to room temperature or 37° C.), diluted to 300 μM in water from which a 3-fold dilution series into water was done. From these dilutions, 20 μL was added into the assay wells alongside water blanks used for the enzyme (positive) control and the no enzyme (background) control. The remainder of the assay was performed essentially according to the selectivity assay protocol in Example 2.

[2] = target: PI3Kα (Homo sapiens (Human), UniProt P42336); assay: Biochemical assay of PI3K selectivity (PI3Kα); settings: ratio of IC50 for PI3Kα relative to PI3Kδ
From the text: as §1
p110α: Similar to the method used for p110δ, described above, a FLAG®-tagged version of p110α (see Volinia et al., Genomics, 24(3):427-77 (1994)) was subcloned in BamH1-HindIII sites of pFastbac HTb (Life Technologies) such that the clone was in frame with the His tag of the vector.
as §2
(§6) Using the method described in Example 2, compounds of the invention were tested for inhibitory activity and potency against PI3Kδ, and for selectivity for PI3Kδ versus other Class I PI3K isozymes. In Table 1, IC50 values (μM) are given for PI3Kδ (“Delta”), and may be calculated for the other isoforms using the ratios of IC50 values discussed below. To illustrate selectivity of the compounds, the ratios of the IC50 values of the compounds for PI3Kα, PI3Kβ, and PI3Kγ relative to PI3Kδ are given, respectively, as “Alpha/Delta Ratio,” “Beta/Delta Ratio,” and “Gamma/Delta Ratio.”
as §3, §4, §5

[3] = target: PI3Kβ (Homo sapiens (Human), UniProt P42338); assay: Biochemical assay of PI3K selectivity (PI3Kβ); settings: ratio of IC50 for PI3Kβ relative to PI3Kδ
From the text: as §1
p110β: A p110β (see Hu et al., Mol. Cell. Biol., 13:7677-88 (1993)) clone was amplified from the human MARATHON® Ready spleen cDNA library (Clontech, Palo Alto Calif.) according to the manufacturer's protocol using the following primers: […]
as §2, §6, §3, §4, §5

[4] = target: PI3Kγ (Homo sapiens (Human), UniProt P48736); assay: Biochemical assay of PI3K selectivity (PI3Kγ); settings: ratio of IC50 for PI3Kγ relative to PI3Kδ
From the text: p110γ: The p110γ cDNA (see Stoyanov et al., Science, 269:690-93 (1995)) was amplified from a human Marathon Ready spleen cDNA library (Clontech) according to the manufacturer's protocol using the following primers: […]
Recombinant baculoviruses containing the above clones were generated using manufacturer's recommended protocol (Life Technologies). Baculoviruses expressing His-tagged p110α, p110β, or p110δ catalytic subunit and p85 subunit were coinfected into Sf21 insect cells. To enrich the heterodimeric enzyme complex, an excess amount of baculovirus expressing p85 subunit was infected, and the His-tagged p110 catalytic subunit complexed with p85 was purified on nickel affinity column. […] In an alternate approach, p101 can be cloned into baculovirus, to permit coexpression with its preferred binding partner p110γ.
as §2, §6, §3, §4, §5

[5] = test system: human neutrophils (PMN); assay: Neutrophil (PMN) elastase release (fMLP-induced elastase exocytosis); assay type: cell-based
Method: Aliquots (8 mL) of heparinized blood from healthy volunteers are layered on 3 mL cushions of 7.3% FICOLL® (Sigma, St. Louis, Mo.) and 15.4% HYPAQUE® (Sigma) and centrifuged at 900 rpm for 30 min at room temperature in a table top centrifuge (Beckman). The neutrophil-rich band just above the FICOLL®-HYPAQUE® cushion is collected and washed with Hanks' balanced salt solution (HESS) containing 0.1% gelatin. Residual erythrocytes are removed by, hypotonic lysis with 0.2% NaCl. The neutrophil preparation is washed twice with HESS containing 0.1% gelatin and used immediately.
In addition to superoxide generation, activated neutrophils also respond by releasing several proteases that are responsible for the destruction of tissues and cartilage during inflammation. As an indication of protease release, the effect of present compound on elastase exocytosis is measured. Elastase exocytosis is quantitated by modification of the procedure described by Ossanna et al. (J. Clin. Invest., 77:1939-51 (1986)), as follows. Purified human neutrophils (0.2×10^6) (treated with either DMSO or a serial dilution of a present compound in DMSO) are stimulated with fMLP in PBS containing 0.01 mg/mL cytochalasin B, 1.0 μM sodium azide (NaN3), 5 μg/mL L-methionine and 1 μM fMLP for 90 min at 37° C. in a 96-well plate. At the end of the incubation period, the plate is centrifuged for 5 min at 1000 rpm, and 90 μL of the supernatant is transferred to 10 μL of 10 mM solution of an elastase substrate peptide, MeO-suc-Ala-Ala-Pro-Val-pNA, wherein MeO-suc=methoxy-succinyl; pNA=p-nitroanilide (Calbiochem, San Diego, Calif.). Absorbance at 410 nm is monitored for 2 hr in a 96-well plate reader. To measure the relative amounts of elastase excytosed, all absorbance values are normalized to the values without any inhibitor.
Using the methods described in Example 2, compounds of the invention were tested for inhibitory activity and potency in an assay of neutrophil (PMN) elastase release. In Table 1, the values shown are effective concentrations of the compound (EC50; μM).

[6] = test system: Human B Lymphocyte; assay: Human B lymphocyte assay; assay type: cell-based
Method: Heparinized blood (200 mL) from healthy volunteers is mixed with an equal volume of D-PBS, layered on 10×10 mL FICOLL-PAQUE® (Pharmacia), and centrifuged at 1600 rpm for 30 min at room temperature. Peripheral blood mononuclear cells (PBMC) are collected from the FICOLL®/serum interface, overlayed on 10 mL fetal bovine serum (FBS) and centrifuged at 800 rpm for 10 min to remove platelets. After washing, cells are incubated with DYNAL® Antibody Mix (B cell kit) (Dynal Corp., Lake Success, N.Y.) for 20 min at 4-8° C. Following the removal of unbound antibody, PBL are mixed with anti-mouse IgG coated magnetic beads (Dynal) for 20 min at 4-8° C. with gentle shaking followed by elimination of labeled non-B cells on the magnetic bead separator. This procedure is repeated once more. The B cells are resuspended in RPMI-1640 with 10% FBS, and kept on ice until further use.
To study antibody production, B cells are aliquoted at 50−75×10^3 cells/well into 96-well plate with or without inhibitor, to which IL-2 (100 U/mL) and PANSORBIN® (Calbiochem) Staphylococcus aureus cells (1:90,000) were added. Part of the media is removed after 24-36 hr, and fresh media (with or without inhibitor) and IL-2 is added. Cultures are incubated at 37° C., in the presence of a CO2 incubator for additional 7 days. Samples from each condition (in triplicate) are removed, and analyzed for IgG and IgM, as measured by ELISA. Briefly, IMMULON® 4 96-well plates are coated (50 μL/well) with either 150 ng/mL donkey antihuman IgG (H+L) (Jackson ImmunoResearch, West Grove Pa.), or 2 μg/mL donkey antihuman IgG+IgM (H+L) (Jackson ImmunoResearch) in bicarbonate buffer, and left overnight at 4° C. After washing three times with phosphate buffered saline containing 0.1% TWEEN®-80 (PBST) (350 μL/well), and blocking with 3% goat serum in PEST (100 μL/well) for 1 hr at room temperature, samples (100 μL/well) of B cell spent media diluted in PBST are added. […] Color development is stopped by H2SOa solution, and plates were read on an ELISA plate reader.

[7] = test system: basophils; assay: Basophil histamine release assay; assay type: cell-based; settings: highest concentration, 10,000 nM
Method: Assessment of the effect of a compound of the invention on basophil function is tested using a conventional histamine release assay, generally in accordance with the method described in Miura et al., J. Immunol., 162:4198-206 (1999). Briefly, enriched basophils are preincubated with test compounds at several concentrations from 0.1 nM to 1,000 nM for 10 min at 37° C. Then, polyclonal goat antihuman IgE (0.1 μg/mL) or fMLP is added, and allowed to incubate for an additional 30 min. Histamine released into the supernatant is measured using an automated fluorometric technique.

Sequence of PI3Kα (P42336 whole entry): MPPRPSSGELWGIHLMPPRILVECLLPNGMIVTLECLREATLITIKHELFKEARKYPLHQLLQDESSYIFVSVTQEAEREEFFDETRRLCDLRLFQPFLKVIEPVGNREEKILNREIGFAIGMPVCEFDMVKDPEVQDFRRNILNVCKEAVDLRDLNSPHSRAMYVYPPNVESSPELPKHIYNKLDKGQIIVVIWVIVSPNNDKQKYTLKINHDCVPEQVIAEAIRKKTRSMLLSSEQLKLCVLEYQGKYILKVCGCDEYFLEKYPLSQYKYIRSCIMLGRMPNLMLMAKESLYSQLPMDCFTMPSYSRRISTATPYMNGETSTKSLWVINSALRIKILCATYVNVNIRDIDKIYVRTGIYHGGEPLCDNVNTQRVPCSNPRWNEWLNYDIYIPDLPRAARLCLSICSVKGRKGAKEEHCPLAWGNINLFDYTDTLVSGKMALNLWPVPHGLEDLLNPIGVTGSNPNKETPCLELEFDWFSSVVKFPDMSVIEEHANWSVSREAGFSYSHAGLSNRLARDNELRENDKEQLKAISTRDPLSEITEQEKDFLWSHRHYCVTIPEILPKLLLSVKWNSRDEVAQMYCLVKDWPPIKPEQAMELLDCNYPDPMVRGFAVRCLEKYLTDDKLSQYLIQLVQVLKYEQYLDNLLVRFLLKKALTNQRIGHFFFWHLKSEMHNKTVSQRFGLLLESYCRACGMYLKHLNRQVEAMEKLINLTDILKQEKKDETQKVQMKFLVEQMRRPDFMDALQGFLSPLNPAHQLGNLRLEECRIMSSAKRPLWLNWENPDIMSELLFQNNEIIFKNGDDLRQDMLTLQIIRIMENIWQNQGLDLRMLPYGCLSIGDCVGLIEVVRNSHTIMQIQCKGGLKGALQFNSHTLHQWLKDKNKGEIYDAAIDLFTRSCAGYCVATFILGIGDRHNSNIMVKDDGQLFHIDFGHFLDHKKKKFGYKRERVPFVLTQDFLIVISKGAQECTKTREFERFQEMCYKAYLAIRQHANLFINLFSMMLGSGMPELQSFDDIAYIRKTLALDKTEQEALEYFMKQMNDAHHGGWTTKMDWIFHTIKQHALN
Sequence of PI3Kα (P27986 whole entry partner): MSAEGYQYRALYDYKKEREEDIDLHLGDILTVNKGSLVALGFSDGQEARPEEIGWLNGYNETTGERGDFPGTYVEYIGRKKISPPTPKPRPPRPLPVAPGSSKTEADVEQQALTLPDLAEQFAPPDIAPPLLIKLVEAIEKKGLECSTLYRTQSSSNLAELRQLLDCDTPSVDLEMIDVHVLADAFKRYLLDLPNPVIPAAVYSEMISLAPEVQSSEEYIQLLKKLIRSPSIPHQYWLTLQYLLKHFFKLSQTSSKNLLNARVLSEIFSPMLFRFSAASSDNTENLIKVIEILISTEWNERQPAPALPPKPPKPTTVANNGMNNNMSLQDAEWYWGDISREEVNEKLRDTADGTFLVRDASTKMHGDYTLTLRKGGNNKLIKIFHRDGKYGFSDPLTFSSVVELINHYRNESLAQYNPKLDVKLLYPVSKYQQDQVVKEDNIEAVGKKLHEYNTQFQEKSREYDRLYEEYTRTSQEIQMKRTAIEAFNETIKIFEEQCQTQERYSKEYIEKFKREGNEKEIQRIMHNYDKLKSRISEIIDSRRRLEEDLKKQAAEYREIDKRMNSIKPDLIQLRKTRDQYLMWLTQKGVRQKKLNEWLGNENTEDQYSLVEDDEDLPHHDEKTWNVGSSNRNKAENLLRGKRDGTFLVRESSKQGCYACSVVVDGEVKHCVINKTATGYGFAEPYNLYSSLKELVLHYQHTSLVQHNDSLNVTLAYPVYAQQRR
Sequence of PI3Kδ (O00329 whole entry S253N): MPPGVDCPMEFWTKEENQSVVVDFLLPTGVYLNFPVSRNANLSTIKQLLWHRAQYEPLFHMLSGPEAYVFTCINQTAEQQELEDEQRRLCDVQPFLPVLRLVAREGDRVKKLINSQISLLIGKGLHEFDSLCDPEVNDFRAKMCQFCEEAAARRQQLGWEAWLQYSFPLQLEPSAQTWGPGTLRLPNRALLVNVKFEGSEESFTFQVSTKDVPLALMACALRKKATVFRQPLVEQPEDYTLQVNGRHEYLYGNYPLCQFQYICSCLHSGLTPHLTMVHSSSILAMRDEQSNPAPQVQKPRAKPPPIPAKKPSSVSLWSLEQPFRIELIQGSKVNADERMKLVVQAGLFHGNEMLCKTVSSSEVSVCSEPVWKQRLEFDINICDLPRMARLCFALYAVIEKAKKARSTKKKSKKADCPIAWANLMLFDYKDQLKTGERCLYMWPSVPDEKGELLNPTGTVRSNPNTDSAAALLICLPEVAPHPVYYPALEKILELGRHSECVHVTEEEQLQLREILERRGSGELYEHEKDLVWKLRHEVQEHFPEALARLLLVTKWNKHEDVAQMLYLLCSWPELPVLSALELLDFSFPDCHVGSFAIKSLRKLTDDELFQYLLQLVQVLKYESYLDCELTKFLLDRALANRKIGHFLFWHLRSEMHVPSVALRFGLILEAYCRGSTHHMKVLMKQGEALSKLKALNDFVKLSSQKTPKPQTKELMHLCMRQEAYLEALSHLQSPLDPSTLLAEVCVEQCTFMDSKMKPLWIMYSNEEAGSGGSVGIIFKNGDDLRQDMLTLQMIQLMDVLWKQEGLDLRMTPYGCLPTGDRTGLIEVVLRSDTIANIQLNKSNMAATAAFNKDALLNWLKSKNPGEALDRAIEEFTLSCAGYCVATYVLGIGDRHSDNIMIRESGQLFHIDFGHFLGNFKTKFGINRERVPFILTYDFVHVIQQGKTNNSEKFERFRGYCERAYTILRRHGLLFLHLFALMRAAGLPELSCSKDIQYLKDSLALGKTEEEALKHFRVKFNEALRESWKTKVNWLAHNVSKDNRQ
Sequence of PI3Kδ (P27986 whole entry partner): as the sequence (P27986 whole entry partner) above
Sequence of PI3Kγ (P48736 whole entry): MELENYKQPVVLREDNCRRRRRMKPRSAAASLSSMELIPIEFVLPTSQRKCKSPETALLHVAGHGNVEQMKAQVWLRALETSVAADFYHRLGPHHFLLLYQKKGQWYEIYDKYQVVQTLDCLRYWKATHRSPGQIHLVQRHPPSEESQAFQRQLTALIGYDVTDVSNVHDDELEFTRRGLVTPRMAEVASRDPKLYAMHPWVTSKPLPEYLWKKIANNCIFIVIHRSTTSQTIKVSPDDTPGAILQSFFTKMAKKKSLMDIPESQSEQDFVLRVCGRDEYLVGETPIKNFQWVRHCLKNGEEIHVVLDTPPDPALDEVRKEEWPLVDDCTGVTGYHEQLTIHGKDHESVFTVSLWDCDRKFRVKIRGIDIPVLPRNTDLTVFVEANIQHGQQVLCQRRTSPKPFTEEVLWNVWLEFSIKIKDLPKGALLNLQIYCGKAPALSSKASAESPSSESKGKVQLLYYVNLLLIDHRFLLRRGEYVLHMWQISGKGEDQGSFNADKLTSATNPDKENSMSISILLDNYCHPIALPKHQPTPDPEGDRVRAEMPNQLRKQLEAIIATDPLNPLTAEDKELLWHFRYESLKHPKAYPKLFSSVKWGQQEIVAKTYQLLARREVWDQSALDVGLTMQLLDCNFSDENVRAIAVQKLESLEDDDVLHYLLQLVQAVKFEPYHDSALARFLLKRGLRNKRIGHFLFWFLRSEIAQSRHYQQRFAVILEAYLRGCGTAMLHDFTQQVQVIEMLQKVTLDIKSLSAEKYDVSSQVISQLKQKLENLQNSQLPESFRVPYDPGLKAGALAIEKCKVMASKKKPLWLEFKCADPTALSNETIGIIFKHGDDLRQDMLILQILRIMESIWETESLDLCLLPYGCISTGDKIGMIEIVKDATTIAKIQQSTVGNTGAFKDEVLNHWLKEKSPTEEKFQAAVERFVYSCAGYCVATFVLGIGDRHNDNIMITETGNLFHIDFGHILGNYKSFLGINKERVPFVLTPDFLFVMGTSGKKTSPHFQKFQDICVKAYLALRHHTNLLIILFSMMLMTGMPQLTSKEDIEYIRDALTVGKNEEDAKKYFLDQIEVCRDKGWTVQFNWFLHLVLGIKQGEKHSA
Sequence of PI3Kβ (P42338 2-1070): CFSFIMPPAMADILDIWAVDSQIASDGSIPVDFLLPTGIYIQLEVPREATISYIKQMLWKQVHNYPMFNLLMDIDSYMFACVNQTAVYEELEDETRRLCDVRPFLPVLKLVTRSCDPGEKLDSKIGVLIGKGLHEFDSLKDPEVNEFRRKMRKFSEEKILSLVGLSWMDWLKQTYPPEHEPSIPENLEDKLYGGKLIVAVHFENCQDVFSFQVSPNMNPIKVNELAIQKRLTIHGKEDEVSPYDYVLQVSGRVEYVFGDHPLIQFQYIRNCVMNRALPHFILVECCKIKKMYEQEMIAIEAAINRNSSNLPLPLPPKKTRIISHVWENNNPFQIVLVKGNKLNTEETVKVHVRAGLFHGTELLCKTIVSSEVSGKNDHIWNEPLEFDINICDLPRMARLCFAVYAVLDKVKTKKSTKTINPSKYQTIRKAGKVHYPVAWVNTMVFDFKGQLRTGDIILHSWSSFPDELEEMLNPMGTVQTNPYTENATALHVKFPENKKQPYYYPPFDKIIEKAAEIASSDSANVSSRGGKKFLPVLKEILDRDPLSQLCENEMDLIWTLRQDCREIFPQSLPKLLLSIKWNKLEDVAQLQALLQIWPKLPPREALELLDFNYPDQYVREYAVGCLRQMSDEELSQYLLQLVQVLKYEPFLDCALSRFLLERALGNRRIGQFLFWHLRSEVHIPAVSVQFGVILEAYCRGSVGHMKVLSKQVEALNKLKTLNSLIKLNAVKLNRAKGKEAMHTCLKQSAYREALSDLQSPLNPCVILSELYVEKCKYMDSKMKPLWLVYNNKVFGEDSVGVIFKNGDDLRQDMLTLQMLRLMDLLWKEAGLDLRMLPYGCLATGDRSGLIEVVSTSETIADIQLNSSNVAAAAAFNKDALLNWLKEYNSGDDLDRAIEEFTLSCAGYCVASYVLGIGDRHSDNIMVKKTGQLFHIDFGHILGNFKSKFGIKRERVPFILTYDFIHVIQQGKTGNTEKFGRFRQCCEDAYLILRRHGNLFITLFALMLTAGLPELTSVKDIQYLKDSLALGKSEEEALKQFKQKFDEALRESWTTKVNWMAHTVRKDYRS
Sequence of PI3Kβ (P27986 whole entry partner): as the sequence (P27986 whole entry partner) above

| Compound | IC50 [1] [nM] | Alpha-Delta Ratio [2] | Beta-Delta Ratio [3] | Gamma-Delta Ratio [4] | EC50 [5] [nM] | EC50 [6] [nM] | inhibition at 10 µM [7] [%] |
| --- | --- | --- | --- | --- | --- | --- | --- |
| CC[C@H](Nc1ncnc2[nH]cnc12)c1nc2cccc(Cl)c2c(=O)n1-c1cc(F)cc(F)c1 [Compound 117, (S)-5-chloro-3-(3,5-difluoro-phenyl)-2-[1-(9H-purin-6-ylamino)-propyl]-3H-quinazolin-4-one] | 12 | 662 | 78 | 67 | 382 | 1.6 | – |
| O=c1cc(N2CCOCC2)oc2c(-c3ccccc3)cccc12 [LY294002] | – | – | – | – | – | – | ~100 |

Now from value to compound, other results behind:

| IC50 [1] [nM] | Alpha-Delta Ratio [2] | Beta-Delta Ratio [3] | Gamma-Delta Ratio [4] | EC50 [5] [nM] | EC50 [6] [nM] | Compound | inhibition at 10 µM [7] [%] |
| --- | --- | --- | --- | --- | --- | --- | --- |
| 16 | 608 | 74 | 66 | 84 | 4.6 | CCC(Nc1ncnc2[nH]cnc12)c1nc2ccccc2c(=O)n1-c1ccccc1 (stereo not drawn) [Compound 98, 3-phenyl-2-[1-(9H-purin-6-ylamino)-propyl]-3H-quinazolin-4-one] | – |
| 45 | 250 | 72 | 38 | 298 | 30.7 | CCC(Nc1ncnc2[nH]cnc12)c1nc2cccc(Cl)c2c(=O)n1-c1c(F)cccc1F (stereo not drawn) [Compound 174, 5-chloro-3-(2,6-difluoro-phenyl)-2-[1-(9H-purin-6-ylamino)-propyl]-3H-quinazolin-4-one] | – |
| 26 | 721 | 94 | 62 | 584 | – | CCC(Nc1ncnc2[nH]cnc12)c1nc2cccc(C)c2c(=O)n1-c1cc(F)cc(F)c1 (stereo not drawn) [Compound 93, 3-(3,5-difluoro-phenyl)-5-methyl-2-[1-(9H-purin-6-ylamino)-propyl]-3H-quinazolin-4-one] | – |
